In ChEMBL document CHEMBL3745703, “Preclinical characterization of substituted 6,7-dihydro-[1,2,4]triazolo[4,3-a]pyrazin-8(5H)-one P2X7 receptor antagonists” (Bioorg Med Chem Lett, 2016):
≈ marks a conversion by molar mass, not a printed value.

Key:
[1] = Plasma protein binding in rat at 1 uM; assay type: ADME, cell-free; settings: read-out: PPB (converted)
[2] = Half life in rat at 1 mg/kg, iv and 5 mg/kg, po; assay type: ADME, organism-based; settings: in vivo
Rattus norvegicus [3] = species: Rattus norvegicus; test: Ex vivo receptor occupancy at P2X7 receptor in Sprague-Dawley rat hippocampus assessed as inhibition of [3H] A-804598 binding at Tmax by autoradiography; assay type: functional
[4] = Aqueous equilibrium solubility of the compound at pH 2; assay type: physicochemical
[5] = Oral bioavailability in rat at 5 mg/kg; assay type: ADME, organism-based; settings: in vivo
[6] = Aqueous equilibrium solubility of the compound at pH 7; assay type: physicochemical
[7] = Plasma concentration in Sprague-Dawley rat at 10 mg/kg, po at Tmax; assay type: ADME, organism-based
[8] = Apparent permeability from apical to basolateral side in human Caco2 cells; assay type: ADME, cell-based; settings: Caco-2
[9] = Volume of distribution at steady state in rat at 1 mg/kg, iv and 5 mg/kg, po; assay type: ADME, organism-based; settings: in vivo, read-out: Vdss
[10] = Clearance in rat at 1 mg/kg, iv and 5 mg/kg, po; assay type: ADME, organism-based; settings: in vivo
Brain = test: Drug uptake in Sprague-Dawley rat brain at 10 mg/kg, po at Tmax; assay type: ADME, organism-based; settings: in vivo
[11] = Apparent permeability from basolateral to apical side in human Caco2 cells; assay type: ADME, cell-based; settings: Caco-2
[12] = Plasma protein binding in human at 1 uM; assay type: ADME, cell-free; settings: read-out: PPB (converted)
[13] = target: Voltage-gated inwardly rectifying potassium channel KCNH2 (Homo sapiens, UniProt Q12809); test: Displacement of dofetilide from human ERG channel
Cytochrome P450 2C19 = Cytochrome P450 2C19 (Homo sapiens, UniProt P33261); test: Inhibition of CYP2C19 (unknown origin); assay type: ADME
Rattus norvegicus [14] = species: Rattus norvegicus; test: animal or person; settings: Sprague-Dawley, P2X7, Plasma
Description: Ex vivo receptor occupancy at P2X7 receptor in po dosed Sprague-Dawley rat hippocampus assessed as inhibition of [3H]JNJ-54232334 binding by measuring plasma level after 30 mins

[15] = Ratio of drug level in brain to plasma in Sprague-Dawley rat at 10 mg/kg, po; assay type: ADME, organism-based; settings: read-out: BPR
[16] = Unbound brain to plasma partition ratio in Sprague-Dawley rat at 0.8 mg/kg, po; settings: read-out: K(p,uu,brain)
[17] = Inhibition of CYP450 (unknown origin); assay type: ADME, Homo sapiens
Rattus norvegicus [18] = test: Ex vivo receptor occupancy at P2X7 receptor in po dosed Sprague-Dawley rat hippocampus assessed as inhibition of [3H]JNJ-54232334 binding after 30 mins; assay type: functional
[19] = Plasma protein binding in Sprague-Dawley rat at 10 mg/kg, po; assay type: ADME, organism-based; settings: read-out: PPB (converted)
Rattus norvegicus [20] = species: Rattus norvegicus; test: animal or person; settings: Sprague-Dawley, P2X7
Description: Ex vivo receptor occupancy at P2X7 receptor in po dosed Sprague-Dawley rat hippocampus assessed as inhibition of [3H]JNJ-54232334 binding by measuring brain level after 30 mins

[21] = Brain protein binding in Sprague-Dawley rat at 10 mg/kg, po; assay type: ADME, organism-based; settings: read-out: PB (converted)
P2X purinoceptor 7 [22] = target: T1, P2X purinoceptor 7 (Homo sapiens, UniProt Q99572); test: Antagonist activity at human P2X7 receptor expressed in 1321N1 cells assessed as inhibition of Bz-ATP-induced Ca2+ flux after 30 mins by FLIPR assay; assay type: cell-based
T1 sequence (Q99572 whole entry): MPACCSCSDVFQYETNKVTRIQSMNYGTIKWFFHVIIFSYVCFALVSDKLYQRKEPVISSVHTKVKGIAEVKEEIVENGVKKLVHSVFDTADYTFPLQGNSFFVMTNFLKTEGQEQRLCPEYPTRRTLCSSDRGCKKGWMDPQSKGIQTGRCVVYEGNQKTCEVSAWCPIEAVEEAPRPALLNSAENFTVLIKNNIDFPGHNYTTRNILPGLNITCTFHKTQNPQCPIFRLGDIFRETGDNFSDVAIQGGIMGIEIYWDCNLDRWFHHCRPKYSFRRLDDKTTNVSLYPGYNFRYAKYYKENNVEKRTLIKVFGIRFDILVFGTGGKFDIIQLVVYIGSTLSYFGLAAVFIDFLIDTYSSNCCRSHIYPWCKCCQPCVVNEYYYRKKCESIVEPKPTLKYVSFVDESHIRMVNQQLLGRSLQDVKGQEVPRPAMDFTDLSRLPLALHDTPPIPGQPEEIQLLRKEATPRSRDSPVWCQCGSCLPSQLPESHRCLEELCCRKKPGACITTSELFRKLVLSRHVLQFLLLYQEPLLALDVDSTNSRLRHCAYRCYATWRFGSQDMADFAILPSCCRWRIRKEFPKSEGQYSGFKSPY

P2X purinoceptor 7 [23] = target: T2, P2X purinoceptor 7 (Rattus norvegicus, UniProt Q64663); test: Antagonist activity at rat P2X7 receptor expressed in 1321N1 cells assessed as inhibition of Bz-ATP-induced Ca2+ flux after 30 mins by FLIPR assay; assay type: cell-based
T2 sequence (Q64663 whole entry): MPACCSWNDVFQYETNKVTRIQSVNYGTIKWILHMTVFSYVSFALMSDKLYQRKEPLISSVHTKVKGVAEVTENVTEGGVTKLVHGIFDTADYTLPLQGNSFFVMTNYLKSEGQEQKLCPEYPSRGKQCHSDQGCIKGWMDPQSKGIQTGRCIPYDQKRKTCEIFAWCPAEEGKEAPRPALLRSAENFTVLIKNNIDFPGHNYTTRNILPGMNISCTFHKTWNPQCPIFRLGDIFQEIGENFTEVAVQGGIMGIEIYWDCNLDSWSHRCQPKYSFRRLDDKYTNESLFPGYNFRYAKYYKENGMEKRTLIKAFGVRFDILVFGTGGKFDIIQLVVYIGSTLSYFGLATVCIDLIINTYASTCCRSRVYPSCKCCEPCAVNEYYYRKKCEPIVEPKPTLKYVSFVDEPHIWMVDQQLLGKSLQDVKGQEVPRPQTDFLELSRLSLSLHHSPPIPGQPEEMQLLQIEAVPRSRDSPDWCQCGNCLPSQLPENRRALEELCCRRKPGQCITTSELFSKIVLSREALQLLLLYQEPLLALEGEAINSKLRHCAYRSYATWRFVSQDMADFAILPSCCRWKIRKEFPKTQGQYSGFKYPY

[24] = Selectivity ratio of IC50 for rat P2X7 receptor to IC50 for human P2X7 receptor
[25] = Efflux ratio of apparent permeability from basolateral to apical side over apical to basolateral side in human Caco2 cells; assay type: ADME, cell-based; settings: Caco-2
[26] = Extraction ratio in rat liver microsomes at 1 uM; assay type: ADME; settings: read-out: ERH
[27] = Extraction ratio in human liver microsomes at 1 uM; assay type: ADME; settings: read-out: ERH

Sequence of Cytochrome P450 2C19 (P33261 whole entry): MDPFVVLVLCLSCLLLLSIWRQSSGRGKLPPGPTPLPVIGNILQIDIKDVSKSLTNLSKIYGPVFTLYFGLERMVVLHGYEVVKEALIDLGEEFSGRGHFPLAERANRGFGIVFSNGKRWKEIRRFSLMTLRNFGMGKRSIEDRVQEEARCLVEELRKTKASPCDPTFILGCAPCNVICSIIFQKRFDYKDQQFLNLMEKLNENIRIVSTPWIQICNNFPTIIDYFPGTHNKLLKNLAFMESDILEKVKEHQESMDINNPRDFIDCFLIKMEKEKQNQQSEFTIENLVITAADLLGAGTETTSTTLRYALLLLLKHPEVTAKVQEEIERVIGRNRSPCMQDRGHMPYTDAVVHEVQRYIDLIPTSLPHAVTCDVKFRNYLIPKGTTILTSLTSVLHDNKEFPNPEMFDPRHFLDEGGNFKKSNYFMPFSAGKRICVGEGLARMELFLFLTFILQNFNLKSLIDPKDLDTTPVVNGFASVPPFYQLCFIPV
Sequence of Voltage-gated inwardly rectifying potassium channel KCNH2 (Q12809 whole entry): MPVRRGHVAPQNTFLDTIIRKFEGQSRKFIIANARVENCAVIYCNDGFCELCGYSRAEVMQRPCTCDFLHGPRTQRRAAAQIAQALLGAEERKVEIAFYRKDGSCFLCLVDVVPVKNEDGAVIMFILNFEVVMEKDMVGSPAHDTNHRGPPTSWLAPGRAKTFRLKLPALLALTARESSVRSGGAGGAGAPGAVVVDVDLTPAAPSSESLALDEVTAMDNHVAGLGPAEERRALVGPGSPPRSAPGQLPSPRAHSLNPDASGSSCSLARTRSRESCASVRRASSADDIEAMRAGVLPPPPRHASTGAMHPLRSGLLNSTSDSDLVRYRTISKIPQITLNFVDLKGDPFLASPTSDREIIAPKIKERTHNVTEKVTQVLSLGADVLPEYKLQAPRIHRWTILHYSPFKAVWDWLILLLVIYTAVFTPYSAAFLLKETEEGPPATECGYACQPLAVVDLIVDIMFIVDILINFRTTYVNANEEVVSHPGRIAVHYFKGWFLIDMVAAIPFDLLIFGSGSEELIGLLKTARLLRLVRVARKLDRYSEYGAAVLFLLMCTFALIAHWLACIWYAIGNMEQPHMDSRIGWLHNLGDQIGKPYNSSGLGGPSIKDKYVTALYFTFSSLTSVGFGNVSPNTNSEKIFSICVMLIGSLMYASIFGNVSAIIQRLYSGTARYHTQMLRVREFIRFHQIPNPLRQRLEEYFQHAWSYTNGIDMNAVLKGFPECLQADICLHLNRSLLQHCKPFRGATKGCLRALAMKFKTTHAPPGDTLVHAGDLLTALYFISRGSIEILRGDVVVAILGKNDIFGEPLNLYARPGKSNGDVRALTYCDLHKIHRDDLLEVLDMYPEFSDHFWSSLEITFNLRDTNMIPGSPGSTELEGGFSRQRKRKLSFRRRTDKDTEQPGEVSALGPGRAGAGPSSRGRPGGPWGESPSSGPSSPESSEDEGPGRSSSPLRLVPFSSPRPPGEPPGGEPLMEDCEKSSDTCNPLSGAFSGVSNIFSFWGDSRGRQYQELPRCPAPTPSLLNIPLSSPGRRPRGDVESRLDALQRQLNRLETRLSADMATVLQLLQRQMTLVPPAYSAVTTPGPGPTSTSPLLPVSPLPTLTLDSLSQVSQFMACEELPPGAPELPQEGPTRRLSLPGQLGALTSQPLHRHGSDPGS

fraction unbound at 1 µM [1] | half-life [2] [h] | solubility thermodynamic [4] [µM] | bioavailability [5] [%] | solubility thermodynamic [6] [µM] | Cmax [7] [ng/mL] | Papp A→B [8] [×10⁻⁶ cm/s] | Vd [9] [L/kg] | clearance [10] [mL/min/kg] | Drug uptake (Brain) [ng/mL] | Papp B→A [11] [×10⁻⁶ cm/s] | fraction unbound at 1 µM [12] | IC50 (P2X purinoceptor 7 [22]) [nM] | IC50 (P2X purinoceptor 7 [23]) [nM] | SMILES | Occ (Rattus norvegicus [3]) [%] | other results
0.17 | 4.8 | 176 (≈ 74.4 µg/mL) | 80 | 201 (≈ 85 µg/mL) | 2790 | 4.4 | 3.3 | 11 | 116 | 64 | 0.21 |  |  | C[C@H]1Cn2c(nnc2-c2ncccn2)C(=O)N1Cc1cccc(C(F)(F)F)c1Cl | 41 | 
0.1 | 1 | 89 (≈ 37.6 µg/mL) | 125 | 56 (≈ 23.7 µg/mL) | 945 | 47 | 1.5 | 19 | 672 | 50 | 0.13 |  |  | C[C@H]1Cn2c(nnc2-c2cnccn2)C(=O)N1Cc1cccc(C(F)(F)F)c1Cl | 78 | IC50 [13]: > 10000 nM; IC50 (Cytochrome P450 2C19): 7200 nM; EC50 (Rattus norvegicus [14]): 0.062 µg/mL (≈ 0.147 µM); Kp [15]: 0.7; Kp uu [16]: 0.51; IC50 [17]: > 10000 nM; ED50 (Rattus norvegicus [18]): 0.8 mg/kg; Occ (Rattus norvegicus [18]): Dose-dependent effect; fraction unbound [19]: 0.096; EC50 (Rattus norvegicus [20]): 0.066 µg/mL (≈ 0.156 µM); fraction unbound [21]: 0.046
 |  |  |  |  |  |  |  |  |  |  |  | 0.7 |  | C[C@H]1Cn2c(nnc2-c2ccc(F)cn2)C(=O)N1Cc1cccc(C(F)(F)F)c1Cl |  | 
 |  |  |  |  |  |  |  |  |  |  |  | 3.6 | 4140 | C[C@H]1Cn2c(nnc2-c2cnccn2)C(=O)N1Cc1cccc(C(F)(F)F)c1 |  | 
 |  |  |  |  |  |  |  |  |  |  |  | 440 | 8670 | O=C1c2nnc(-c3cnccn3)n2CCN1Cc1cccc(C(F)(F)F)c1Cl |  | 
 |  |  |  |  |  |  |  |  |  |  |  | 4.2 | 960 | C[C@H]1Cn2c(nnc2-c2ccn(C)n2)C(=O)N1Cc1cccc(C(F)(F)F)c1Cl |  | Ratio IC50 [24]: 100
 |  |  |  |  |  |  |  |  |  |  |  | 0.5 | 350 | C[C@H]1Cn2c(nnc2-c2ccccn2)C(=O)N1Cc1cccc(C(F)(F)F)c1Cl |  | Ratio IC50 [24]: 100
0.1 | 3.9 | 41 (≈ 16.8 µg/mL) | 81 | 95 (≈ 39 µg/mL) | 1310 | 5.4 | 4.2 | 13 | 41 | 65 | 0.08 |  |  | C[C@H]1Cn2c(nnc2-c2cc[nH]n2)C(=O)N1Cc1cccc(C(F)(F)F)c1Cl | 3 | 
 |  |  |  |  |  |  |  |  |  |  |  |  | > 10000 | C[C@H]1Cn2c(nnc2-c2cnccn2)C(=O)N1Cc1ccccc1Cl |  | 
 |  |  |  |  |  |  |  |  |  |  |  | > 10000 | > 10000 | O=C1c2nnn(-c3cnccn3)c2CCN1Cc1cccc(C(F)(F)F)c1Cl |  | 
0.17 | 2.8 | > 400 | 82 | 375 (≈ 158 µg/mL) | 1060 | 6.2 | 5 | 21 | 43 | 73 | 0.22 | 1.9 | 88 | C[C@H]1Cn2c(nnc2-c2cccnc2)C(=O)N1Cc1cccc(C(F)(F)F)c1Cl | 0 | Ratio IC50 [24]: 100; efflux ratio [25]: > 10; hepatic extraction ratio at 1 µM [26]: 0.3; hepatic extraction ratio at 1 µM [27]: 0.3
 |  |  |  |  |  |  |  |  |  |  |  |  | 2380 | C[C@H]1Cn2c(nnc2-c2cnccn2)C(=O)N1Cc1c(Cl)cccc1Cl |  | 
